# Data reported in patent publication US9580430B2, “9H-pyrimido[4,5-B]indoles and related analogs as BET bromodomain inhibitors” (THE REGENTS OF THE UNIVERSITY OF MICHIGAN, priority 2014, dated 2017).
# Tests used:
# [1] = system: VCaP tumor xenograft
# Experimental: (§1) Four week-old male SCID C.B17 mice were procured from a breeding colony at University of Michigan. All procedures involving mice were approved by the University Committee on Use and Care of Animals (UCUCA) at the University of Michigan and conform to all regulatory standards. Mice were anesthetized using 2% Isoflurane (inhalation) and 2×10^6 VCaP prostate cancer cells suspended in 100 μl of PBS with 50% Matrigel (BD Biosciences) were implanted subcutaneously into the dorsal flank on both sides of the mice. […] Growth in tumor volume was recorded using digital calipers and tumor volumes were estimated using the formula (π/6) (L×W^2), where L=length of tumor and W=width. Loss of body weight during the course of the study was also monitored. At the end of the studies mice were sacrificed and tumors extracted and weighed. Additionally, femur bone marrow, liver and spleen were harvested to examine spontaneous metastasis by detecting human-Alu sequence. […] All procedures involving mice were approved by the University Committee on Use and Care of Animals (UCUCA) at the University of Michigan and conform to all regulatory standards.
# [2] = system: AR-gene signature; experiment: Gene expression array, GSEA of the AR target gene signature; type: cell-based; settings: AR-positive cells; 500 nM, 24 h; FIG. 6
# Experimental: (§2) Cells treated with only vehicle or 10 nM DHT served as controls. […] Expression profiling was performed using the Agilent Whole Human Genome Oligo Microarray (SantaClara, Calif.) according to the manufacturer's protocol. All samples were run in technical duplicates or quadruplets against control. Over- and under-expressed gene sets were generated by filtering to include only 2-fold average over- or underexpression (Log ratio with p<0.001) in all hybridizations.
# [3] = system: MYC; experiment: MYC levels in prostate cancer cells; type: cell-based; settings: AR-positive cells sensitive to JQ1, not AR-negative cells
# Experimental: Total RNA was isolated from cells using RNeasy Mini Kit (Qiagen) and cDNA was synthesized from 1,000 ng total RNA using SuperScript III First-Strand Synthesis SuperMix (Invitrogen). QPCRs were performed in duplicate or triplicate using Taqman assays (Applied Biosystems) or standard SYBR green reagents and protocols on a StepOnePlus Real-Time PCR system (Applied Biosystems). The target mRNA expression was quantified using ΔΔCt method and normalized to GAPDH expression. All primers were designed using Primer 3 (http://frodo.wi.mit.edu/primer3/) and synthesized by Integrated DNA Technologies (Coralville, Iowa).
# For Western blot analysis, 200 ug total protein extract was boiled in sample buffer and 10-20 μg aliquots were separated by SDS-PAGE and transferred onto Polyvinylidene Difluoride membrane (GE Healthcare). The membrane was incubated for one hour in blocking buffer [Tris-buffered saline, 0.1% Tween (TBS-T), 5% nonfat dry milk] followed by incubation overnight at 4° C. with the primary antibody. Following a wash with TBS-T, the blot was incubated with horseradish peroxidase-conjugated secondary antibody and signals were visualized by enhanced chemiluminescence system as per manufacturer's protocol (GE Healthcare).
# [4] = system: BRD2/3/4; experiment: ChIP-seq of BRD2/3/4 in VCaP cells; type: cell-based; settings: 500 nM, 12 h
# Experimental: (§3) The ChIP assays for BRD2, BRD3, BRD4, AR, RNA PolII, ERG and H3K27ac were performed using HighCell ChIP kit (Diagenode) according to manufacturer's protocol. […] Next, cells were cross-linked for 10 min. with 1% formaldehyde. […] Chromatin equivalent to 5×10^6 cells were used for ChIP using different antibodies. ChIP DNA was isolated (IPure Kit, Diagenode) from samples by incubation with the antibody at 4° C. overnight followed by wash and reversal of cross-linking. The ChIP-seq sample preparation for sequencing was performed according to the manufacturer's instructions (Illumina). […] A single A-base was added to fragment ends by Klenow fragment (3′ to 5′ exo minus; NEB) followed by ligation of Illumina adaptors (Quick ligase, NEB). The adaptor-modified DNA fragments were enriched by PCR using the Illumina Barcode primers and Phusion DNA polymerase (NEB). PCR products were size selected using 3% NuSieve agarose gels (Lonza) followed by gel extraction using QIAEX II reagents (QIAGEN). Libraries were quantified with the Bioanalyzer 2100 (Agilent) and sequenced on the Illumina HiSeq 2000 Sequencer (100 nucleotide read length).
# [5] = Prostate histology and hormone measurement in mice; type: in vivo
# Experimental: Highly hormone responsive seminal vesicles attached to prostate were harvested from mice after four weeks of injection. Prostate were fixed in formalin solution and processed for sectioning. Standard H&E staining was achieved on the formalin fixed sections and were used to image the different lobes of the gland. To determine the testosterone levels, blood samples were collected by cardiac puncture from mice anesthetized with isoflurane. The serum was separated from the blood and stored at −80° C. until assayed. Serum testosterone levels were measured by the Ligand Assay at University of Michigan-ULAM Pathology Cores for Animal Research.
# [6] = system: MYC signature; experiment: Gene expression array, GSEA of MYC signature, DU145; type: cell-based; settings: DU145 after JQ1 treatment
# Experimental: as §2
# [7] = system: castration-resistant VCaP tumor xenografts; experiment: Castration-resistant VCaP tumor xenograft (CRPC experiment); type: in vivo; settings: castrated mice; 50 mg/kg, 5 days/week; FIG. 26
# Experimental: as §1
# [8] = system: MYC signature; experiment: Gene expression array, GSEA of MYC signature, LNCaP; type: cell-based; settings: LNCaP after JQ1 treatment
# Experimental: as §2
# [9] = system: AR-positive cells; experiment: Long-term colony formation assay; type: cell-based; settings: 100 nM, 12 days, FIG. 3
# Experimental: Cells were seeded in 96-well plates at 2000-10,000 cells/well (optimum density for growth) in a total volume of 100 μl media containing 10% FBS. Serially diluted compounds in 100 μl media were added to the cells 12 h later. Following 96 h. incubation, cell viability was assessed by Cell-Titer GLO (Promega). The values were normalized and IC50 was calculated using GraphPad Prism software. […] After 12 days cells were fixed with methanol, stained with crystal violet and photographed. For colorimetric assays, the stained wells were treated with 500 μl 10% acetic acid and the absorbance was measured at 560 nm using a spectrophotometer.
# [10] = system: BRD4; experiment: ChIP-seq of BRD4 in DHT-stimulated VCaP cells; type: cell-based; settings: JQ1 500 nM, FIG. 20
# Experimental: as §3
# For enrichment plots shown in FIGS. 17, 19 and 20, identified peaks for each sample are centered by peak summit and average coverage per million was counted within 1500 bp relative to the peak center.
# [11] = gene set SCHLOSSER_MYC_AND_SERUM_RESPONSE_SYNERGY
# [12] = gene set SCHLOSSER_MYC_TARGETS_AND_SERUM_RESPONSE_UP
# [13] = gene set SCHUHMACHER_MYC_TARGETS_UP
compound,measurement,setting,value
Cc1sc2c(c1C)C(c1ccc(Cl)cc1)=N[C@@H](CC(=O)OC(C)(C)C)c1nnc(C)n1-2 [JQ1],tumor volume/weight,"[1]; VCaP tumor-bearing mice, JQ1 50 mg/kg, MDV3100 10 mg/kg, 5 days/week, FIGS. 23-25",significant reduction in tumor volume/weight
same,tolerability,"[1]; mouse, in vivo",well tolerated
same,GSEA of AR-gene signature,[2],significantly repressed
same,MYC levels,[3],attenuated
same,recruitment of BRD2/3/4 to the chromatin,[4],reduction in the recruitment
same,physiologic androgen-regulated processes,[5],No effect on physiologic androgen-regulated processes
same,testes size,[5],reduced testes size
same,NES,[6]; gene set MYC_UP.V1_UP,−0.952
same,NES,[6]; [11],−1.085
same,NES,[6]; [12],−0.734
same,NES,[6]; [13],−1.086
same,reduction in castration-resistant tumors,[7],50%
same,NES,[8]; gene set MYC_UP.V1_UP,−2.068
same,NES,[8]; [11],−1.751
same,NES,[8]; [12],−1.957
same,NES,[8]; [13],−2.403
same,long term colony-formation,[9],severely inhibited
same,DHT induced BRD4 recruitment to the AR-BRD4 shared loci,[10],almost completely abrogated
